The test system of data set [1] is seizures. The note with it: 200 mg/day pure CBD, four adult patients; seizure frequency unchanged in the remainder; cited from earlier work.
In data set [2] the test system is Lennox-Gastaut syndrome. The settings on record: one child with Lennox-Gastaut syndrome, CBD in an oily solution; cited from earlier work.
Data set [3] concerns seizures after pro-convulsant drugs or an electric current. The note with it: mice; cited from earlier work.
Data set [4] has as its system seizures. The settings on record: 200 mg/day pure CBD, twelve institutionalized adult patients, open label; cited from earlier work.
The nature of data set [5]: Solubility of drug substance in water. In kind it is physicochemical. The source says: The drug substance, CBD is insoluble in water. Sesame oil was selected as an excipient to solubilize the drug substance.
The subject of data set [6] is generalized epilepsy. The note with it: eight adult patients with generalized epilepsy; cited from earlier work.
Data set [7] has as its system seizures associated with Aicardi Syndrome. Description: Expanded access compassionate use program: CBD added to baseline AED regimen, seizure frequency from seizure diaries. The data set is classed as in vivo, human. On the procedure:
Of 137 children and young adults with severe, childhood onset treatment-resistant epilepsy (TRE), 14 suffered from Aicardi syndrome. These subjects were tested with a highly purified extract of cannabidiol (CBD) obtained from a cannabis plant. The participants in the study were part of an expanded access compassionate use program for CBD.
All of these patients diagnosed with Aicardi Syndrome presented with multiple seizure types which included
focal seizures with impairment; infantile spasm; clonic seizures; tonic seizures; tonic-clonic seizures; atonic seizures; myoclonic seizures; absence seizures; and focal seizures evolving to secondary generalised seizures.
All patients entered a baseline period of 4 weeks when parents/caregivers kept prospective seizure diaries, noting all countable motor seizure types.
The patients then received a highly purified CBD extract (greater than 98% CBD w/w) in sesame oil, of known and constant composition, at a dose of 5 mg/kg/day in addition to their baseline anti-epileptic drug (AED) regimen.
Laboratory testing for hematologic, liver, kidney function, and concomitant AED levels was performed at baseline, and after CBD therapy.
All patients were taking at least two concomitant anti-epileptic drugs. These included clobazam; levetiracetam; topiramate; stiripentol; phenobarbital; lacsamide; valproic acid; zonisamide. The average number of concomitant antiepileptic drugs being taken was 2.7.
There were 14 children and young adult patients who received at least 3 months of treatment all of whom suffered from treatment-resistant epilepsy which is characterised by Aicardi Syndrome.
The change from baseline in the number of different seizures and total number of seizures after 12 weeks treatment are summarized in Table 7 below.

Data set [8] has as its system seizures. The note with it: Consroe et al., 1977; cited from earlier work.
Setting [9] is: 14 Aicardi Syndrome patients, after 12 weeks treatment, CBD 5 up to 25 mg/kg/day plus concomitant AED.
The mark [10] stands for this setting: Aicardi Syndrome patients, after 3 months of therapy.

This is an account of results in patent publication US10765643B2, “Use of cannabidiol in the treatment of epilepsy” (GW Pharma Limited, priority 2014, dated 2020).

With `C=C(C)[C@@H]1CCC(C)=C[C@H]1c1c(O)cc(CCCCC)cc1O` [CBD, Cannabidiol], the “patients who became seizure free” value in data set [1] is “two of the four”. Further, the seizure frequency entry in data set [2] was “improvement”. Also, the prevention of seizures entry in data set [3] is “able to prevent seizures”. For the same molecule, in data set [4], the controlling seizures result is reported as “ineffective”. In addition, the solubility in water entry in data set [5] is reported as “insoluble”. Moreover, the “patients with marked reduction of seizures” value in data set [6] was 4. In data set [7] (setting [9]), the “Average change in baseline (%) Convulsive seizures” value is given as −77%, the “Average change in baseline (%) Focal seizures with impairment” value is on record as −62%, the “Average change in baseline (%) Infantile spasm” value is recorded as −55.5% and the “Average change in baseline (%) Total seizures” value is recorded as −69%. For the same molecule, in data set [7] (setting [10]), the “reduction in convulsive seizures” value was 77%, the “reduction in focal seizures with impairment” value is 62% and the “reduction of infantile spasms” value turned out to be 55.5%. For the same molecule, in data set [7] (Aicardi Syndrome patients, after 3 months of therapy, average decrease), the “reduction in total seizures” value was determined as 69%. In data set [7] (one patient, week 12, 47 seizures at baseline, earlier stage of program), the “focal onset seizures evolving to secondary generalisation” value is recorded as 17 per month. In addition, the tonic-clonic seizures in data set [7] (other patient, week 12, 7 seizures at baseline, earlier stage of program) is reported as 5 per month. In addition, the tonic seizures in data set [7] (other patient, week 12, 67 seizures at baseline, earlier stage of program) stood at 6 per month.
As to `CCCCCc1cc(O)c2c(c1)OC(C)(C)[C@@H]1CCC(C)=C[C@@H]21` [THC, Tetrahydro- cannabinol], the pro-convulsant effect entry in data set [8] is “pro-convulsant”.
